The target in this test is T1, IRAK4 (Homo sapiens, UniProt Q9NWZ3).
T1 construct: Degradation of IRAK4 in OCI-LY10 was quantitatively measured using Meso Scale Discovery technology; endogenous in cells; host or cells: OCI-LY10
T1 sequence (Q9NWZ3 1-460): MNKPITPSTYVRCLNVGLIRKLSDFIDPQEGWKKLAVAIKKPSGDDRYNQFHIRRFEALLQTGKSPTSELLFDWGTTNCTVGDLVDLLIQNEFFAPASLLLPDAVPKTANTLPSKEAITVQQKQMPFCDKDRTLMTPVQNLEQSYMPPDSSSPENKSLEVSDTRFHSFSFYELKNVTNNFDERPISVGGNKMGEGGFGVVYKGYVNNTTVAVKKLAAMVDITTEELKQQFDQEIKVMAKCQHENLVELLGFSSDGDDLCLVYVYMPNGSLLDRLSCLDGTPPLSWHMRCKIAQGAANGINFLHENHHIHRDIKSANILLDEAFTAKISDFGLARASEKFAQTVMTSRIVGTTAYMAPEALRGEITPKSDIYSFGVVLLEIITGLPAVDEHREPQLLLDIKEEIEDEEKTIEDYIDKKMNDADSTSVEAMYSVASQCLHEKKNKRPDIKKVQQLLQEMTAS
The experiment in a line: IRAK4 MSD Degradation in OCI-LY10. The test is classed as cell-based. Particulars: OCI-LY10 cells, MSD. The essentials:
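DC50, from a three-parameter logistic fit and reported as letter bins A (<0.01 μM), B, C, D (>0.2 μM or not tested), reflects IRAK4 loss measured by MSD electrochemiluminescence in OCI-LY10 lysates. Treatment: 8 doses, 1:3 steps, top 1 to 10 μM, 4 to 24 h, 37 °C.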

Where [1] appears, read: 4 hrs incubation, read-out: IRAK4 degradation in OCI-LY10 at 4 hrs: DC50.
Setting [2] is: 24 hrs incubation, read-out: IRAK4 degradation in OCI-LY10 at 24 hrs: DC50.

Where two headings read alike, the source gives them in different places.

Broadly, the DC50 is the midpoint of the concentration-degradation curve. On to `COc1ccc2c(c1N1CC(CN3CCN(C[C@H]4CC[C@H](n5cc(NC(=O)c6cnn7ccc(N8C[C@H]9C[C@@H]8CO9)nc67)c(C(F)F)n5)CC4)CC3)C1)n(C)c(=O)n2C1CCC(=O)NC1=O` (stereo partly shown) [I-675], for which the DC50 runs as follows: under setting [1], more than 0.2 µM; under setting [2], less than 0.01 µM.

With `Cn1c(=O)n(C2CCC(=O)NC2=O)c2ccc(F)c(N3CC(CN4CCN(C[C@H]5CC[C@H](n6cc(NC(=O)c7cnn8ccc(N9C[C@H]%10C[C@@H]9CO%10)nc78)c(C(F)F)n6)CC5)CC4)C3)c21` (stereo partly shown) [I-676], the DC50 was more than 0.2 µM under setting [1] and less than 0.01 µM under setting [2].

Consider `Cn1c(=O)n(C2CCC(=O)NC2=O)c2cccc(N3CCN(C[C@]4(O)CC[C@@H](n5cc6cc(NC(=O)c7cccc(C(F)(F)F)n7)ncc6n5)CC4)CC3)c21` (stereo partly shown) [I-677], for which the DC50 reads like this: under setting [1], more than 0.2 µM; under setting [2], less than 0.01 µM.

Regarding `Cn1c(=O)n(C2CCC(=O)NC2=O)c2cccc(N3CC(F)(CN4CCN(C[C@H]5CC[C@H](n6cc(NC(=O)c7cnn8ccc(N9C[C@H]%10C[C@@H]9CO%10)nc78)c(C(F)F)n6)CC5)CC4)C3)c21` (stereo partly shown) [I-678], the DC50 by setting is: under setting [1], more than 0.2 µM; under setting [2], less than 0.01 µM.

Take `Cn1c(=O)n(C2CCC(=O)NC2=O)c2cccc(N3CCN([C@@H]4CCN(C[C@H]5CC[C@H](n6cc(NC(=O)c7cnn8ccc(N9C[C@H]%10C[C@@H]9CO%10)nc78)c(C(F)F)n6)CC5)C[C@@H]4F)CC3)c21` (stereo partly shown) [I-679]: the DC50 by setting is: under setting [1], more than 0.2 µM; under setting [2], less than 0.01 µM.

Consider `C[C@@H]1CN(c2ccn3ncc(C(=O)Nc4cn([C@H]5CC[C@H](CN6CCN(CC7CN(c8cccc9c8n(C)c(=O)n9C8CCC(=O)NC8=O)C7)CC6)CC5)nc4C(F)F)c3n2)CCO1` (stereo partly shown) [I-680], for which the 50% degradation concentration (DC50) was more than 0.2 µM under setting [1] and less than 0.01 µM under setting [2].

For `Cn1c(=O)n(C2CCC(=O)NC2=O)c2cccc(C3CN([C@@H]4CCN(C[C@H]5CC[C@H](n6cc(NC(=O)c7cnn8ccc(N9C[C@H]%10C[C@@H]9CO%10)nc78)c(C(F)F)n6)CC5)C[C@H]4F)C3)c21` (stereo partly shown) [I-681], the DC50 is, setting by setting: under setting [1], more than 0.2 µM; under setting [2], less than 0.01 µM.

In the case of `Cn1c(=O)n(C2CCC(=O)NC2=O)c2cccc(C3CN(C4CCN(C[C@H]5CC[C@H](n6cc(NC(=O)c7cnn8ccc(N9C[C@H]%10C[C@@H]9CO%10)nc78)c(C(F)F)n6)CC5)CC4(F)F)C3)c21` (stereo partly shown) [I-682], the half-maximal degradation concentration (DC50) was more than 0.2 µM under setting [1] and less than 0.01 µM under setting [2].

Turning to `Cn1c(=O)n(C2CCC(=O)NC2=O)c2cccc(N3CCN([C@@H]4CCN(C[C@H]5CC[C@H](n6cc(NC(=O)c7cnn8ccc(N9C[C@H]%10C[C@@H]9CO%10)nc78)c(C(F)F)n6)CC5)C[C@H]4F)CC3)c21` (stereo partly shown) [I-683], the half-maximal degradation concentration (DC50) was more than 0.2 µM under setting [1] and less than 0.01 µM under setting [2].

In the case of `Cn1c(=O)n(C2CCC(=O)NC2=O)c2cccc(N3CCN(C[C@]4(O)CC[C@@H](n5cc6cc(NC(=O)c7cccc(C(F)(F)F)n7)ccc6n5)CC4)CC3)c21` (stereo partly shown) [I-684], the DC50 was more than 0.2 µM under setting [1] and less than 0.01 µM under setting [2].

Regarding `Cn1c(=O)n(C2CCC(=O)NC2=O)c2cccc(N3CCN(C[C@H]4CC[C@H](n5cc6cc(NC(=O)c7cccc(C#N)n7)ccc6n5)CC4)CC3)c21` (stereo partly shown) [I-685], the DC50 was more than 0.2 µM under setting [1] and less than 0.01 µM under setting [2].

For the compound `Cn1c(=O)n(C2CCC(=O)NC2=O)c2ccc(F)c(N3CCN(C[C@H]4CC[C@H](n5cc6cc(NC(=O)c7cccc(C#N)n7)ccc6n5)CC4)CC3)c21` (stereo partly shown) [I-686], the DC50 under setting [1] was more than 0.2 µM and the 50% degradation concentration (DC50) under setting [2] was 0.01 to 0.1 µM.

As to `COc1ccc2c(c1N1CCN(CC3CCC(n4cc5cc(NC(=O)c6cccc(C#N)n6)ccc5n4)CC3)CC1)n(C)c(=O)n2C1CCC(=O)NC1=O` (stereo not shown) [I-687], the half-maximal degradation concentration (DC50) under setting [1] is more than 0.2 µM and the 50% degradation concentration (DC50) under setting [2] was less than 0.01 µM.

With `Cn1c(=O)n(C2CCC(=O)NC2=O)c2cccc(C3COC4(C3)CN(C[C@H]3CC[C@H](n5cc6cc(NC(=O)c7cccc(C(F)(F)F)n7)ncc6n5)CC3)C4)c21` (stereo partly shown) [I-688], the DC50 was more than 0.2 µM under setting [1] and less than 0.01 µM under setting [2].

As to `Cn1c(=O)n(C2CCC(=O)NC2=O)c2cccc(C3COC4(C3)CN(C[C@H]3CC[C@H](n5cc6cc(NC(=O)c7cccc(C(F)(F)F)n7)ccc6n5)CC3)C4)c21` (stereo partly shown) [I-689], the DC50 was more than 0.2 µM under setting [1] and less than 0.01 µM under setting [2].

Turning to `Cn1c(=O)n(C2CCC(=O)NC2=O)c2cccc([C@@H]3CCN(C[C@]4(O)CC[C@@H](n5cc6cc(NC(=O)c7cccc(C(F)(F)F)n7)ccc6n5)CC4)C[C@H]3F)c21` (stereo partly shown) [I-690], the 50% degradation concentration (DC50) under setting [1] is more than 0.2 µM and the DC50 under setting [2] is less than 0.01 µM.

On to `Cn1c(=O)n(C2CCC(=O)NC2=O)c2cccc(C#CCOC3CCN(C[C@H]4CC[C@@H](c5ccc(C(F)F)c(NC(=O)c6cnn7ccc(N8C[C@H]9C[C@@H]8CO9)nc67)c5)CC4)CC3)c21` (stereo partly shown) [I-691], for which the half-maximal degradation concentration (DC50) by setting is: under setting [1], more than 0.2 µM; under setting [2], more than 0.2 µM.

In the case of `Cc1cccc(C(=O)Nc2cc3cn([C@H]4CC[C@H](CN5CCN(c6cccc7c6n(C)c(=O)n7C6CCC(=O)NC6=O)CC5)CC4)nc3cn2)n1` (stereo partly shown) [I-692], the DC50 by setting is: under setting [1], more than 0.2 µM; under setting [2], less than 0.01 µM.

For the compound `Cn1c(=O)n(C2CCC(=O)NC2=O)c2cccc(N3CCN(C[C@H]4CC[C@H](n5cc6cc(NC(=O)c7cccc(C(F)F)n7)ncc6n5)CC4)CC3)c21` (stereo partly shown) [I-693], the DC50 is, setting by setting: under setting [1], more than 0.2 µM; under setting [2], less than 0.01 µM.

In the case of `Cn1c(=O)n(C2CCC(=O)NC2=O)c2ccc(F)c(N3CCN(C[C@H]4CC[C@H](n5cc6cc(NC(=O)c7cccc(C(F)(F)F)n7)ncc6n5)CC4)CC3)c21` (stereo partly shown) [I-694], the DC50 reads like this: under setting [1], more than 0.2 µM; under setting [2], less than 0.01 µM.

Turning to `Cc1cccc(C(=O)Nc2cc3cn([C@H]4CC[C@H](CN5CCN(c6c(F)ccc7c6n(C)c(=O)n7C6CCC(=O)NC6=O)CC5)CC4)nc3cn2)n1` (stereo partly shown) [I-695], the 50% degradation concentration (DC50) was more than 0.2 µM under setting [1] and less than 0.01 µM under setting [2].

On to `Cn1c(=O)n(C2CCC(=O)NC2=O)c2cccc(OC3CN(C[C@H]4CC[C@H](n5cc6cc(NC(=O)c7cccc(C(F)(F)F)n7)c(C(C)(C)O)cc6n5)CC4)C3)c21` (stereo partly shown) [I-696], for which the DC50 under setting [1] is more than 0.2 µM and the DC50 under setting [2] is less than 0.01 µM.

Regarding `CN(c1cccc2c1n(C)c(=O)n2C1CCC(=O)NC1=O)C1CN(C[C@H]2CC[C@H](n3cc(NC(=O)c4cnn5ccc(N6C[C@H]7C[C@@H]6CO7)nc45)c(C(F)F)n3)CC2)C1` (stereo partly shown) [I-697], the DC50 by setting is: under setting [1], more than 0.2 µM; under setting [2], less than 0.01 µM.

In the case of `CN(c1cccc2c1n(C)c(=O)n2C1CCC(=O)NC1=O)C1CN(C[C@H]2CC[C@H](n3cc4cc(NC(=O)c5cccc(C(F)(F)F)n5)ncc4n3)CC2)C1` (stereo partly shown) [I-698], the DC50 is, setting by setting: under setting [1], more than 0.2 µM; under setting [2], more than 0.2 µM.

Consider `CN(c1cccc2c1n(C)c(=O)n2C1CCC(=O)NC1=O)C1CN(C[C@H]2CC[C@H](n3cc4cc(NC(=O)c5cccc(C(F)(F)F)n5)ccc4n3)CC2)C1` (stereo partly shown) [I-699], for which the DC50 is, setting by setting: under setting [1], more than 0.2 µM; under setting [2], more than 0.2 µM.

For `CN(CC1CCN(c2cccc3c2n(C)c(=O)n3C2CCC(=O)NC2=O)CC1)c1ccc(-n2cc(NC(=O)c3cnn4cccnc34)c(C(F)F)n2)cc1` (stereo not shown) [I-700], under setting [1], the half-maximal degradation concentration (DC50) is more than 0.2 µM.

For `Cn1c(=O)n(C2CCC(=O)NC2=O)c2cccc(N3CCN(C4CCN(C[C@H]5CC[C@H](n6cc(NC(=O)c7cnn8ccc(N9C[C@H]%10C[C@@H]9CO%10)nc78)c(C(F)F)n6)CC5)CC4(F)F)CC3)c21` (stereo partly shown) [I-701], the 50% degradation concentration (DC50) is more than 0.2 µM under setting [1] and less than 0.01 µM under setting [2].

Take `Cn1c(=O)n(C2CCC(=O)NC2=O)c2cccc(CN3CC4(CCN(Cc5ccc(-n6cc(NC(=O)c7cnn8ccc(N9C[C@H]%10C[C@@H]9CO%10)nc78)c(C(F)F)n6)cc5)CC4)C3)c21` (stereo partly shown) [I-702]: the 50% degradation concentration (DC50) was more than 0.2 µM under setting [1] and 0.01 to 0.1 µM under setting [2].

`Cn1c(=O)n(C2CCC(=O)NC2=O)c2cccc(C#CCN3CCN(C[C@H]4CC[C@H](n5cc(NC(=O)c6cnn7ccc(N8CCOC(F)(F)C8)nc67)c(C(F)F)n5)CC4)CC3)c21` (stereo partly shown) [I-703]: the DC50 is, setting by setting: under setting [1], more than 0.2 µM; under setting [2], less than 0.01 µM.

Take `COc1cc2nn([C@H]3CC[C@H](CN4CC=C(c5ccc6c(c5)n(C)c(=O)n6C5CCC(=O)NC5=O)C(F)(F)C4)CC3)cc2cc1NC(=O)c1cccc(C(F)(F)F)n1` (stereo partly shown) [I-704]: the DC50 by setting is: under setting [1], more than 0.2 µM; under setting [2], 0.01 to 0.1 µM.

`Cn1c(=O)n(C2CCC(=O)NC2=O)c2cccc(C3CCN(C[C@H]4CC[C@H](n5cc6cc(NC(=O)c7cccc(C(F)(F)F)n7)c(C#N)cc6n5)CC4)CC3(F)F)c21` (stereo partly shown) [I-705]: the 50% degradation concentration (DC50) was more than 0.2 µM under setting [1] and less than 0.01 µM under setting [2].

`Cn1c(=O)n(C2CCC(=O)NC2=O)c2cccc(C3=CCN(C[C@H]4CC[C@H](n5cc6cc(NC(=O)c7cccc(C(F)(F)F)n7)ccc6n5)CC4)CC3F)c21` (stereo partly shown) [I-706]: the DC50 is more than 0.2 µM under setting [1] and 0.01 to 0.1 µM under setting [2].

As to `Cn1c(=O)n(C2CCC(=O)NC2=O)c2cccc([C@H]3CCN(C[C@H]4CC[C@H](n5cc6cc(NC(=O)c7cccc(C(F)(F)F)n7)ccc6n5)CC4)C[C@@H]3O)c21` (stereo partly shown) [I-707], the 50% degradation concentration (DC50) under setting [1] is more than 0.2 µM and the half-maximal degradation concentration (DC50) under setting [2] is less than 0.01 µM.

Turning to `Cn1c(=O)n(C2CCC(=O)NC2=O)c2cccc(C3CCN(C[C@H]4CC[C@H](n5cc6cc(NC(=O)c7cccc(C(F)(F)F)n7)ccc6n5)CC4)CC3(F)F)c21` (stereo partly shown) [I-708], the DC50 runs as follows: under setting [1], more than 0.2 µM; under setting [2], 0.01 to 0.1 µM.
